Source: the NIST ThermoML archive (doi:10.1021/acs.jced.5b01082)
± gives the expanded uncertainty stated by the source.

Experiments:
[1] = 101.33 kPa, Liquid; for viscosity: Cone and plate viscometry; for mass density: Vibrating tube method
[2] = wn = mass fraction of the nth substance listed; conditions: 100 kPa, Liquid; for viscosity: Cone and plate viscometry; for mass density: Vibrating tube method

CC(CC(C)(C)C)CP(=O)([O-])CC(C)CC(C)(C)C.CCCCCCCCCCCCCC[P+](CCCCCC)(CCCCCC)CCCCCC
viscosity ([1]; 298.15 K): 999.6 ± 120 mPa·s
mass density ([1]; 298.15 K): 884.09 ± 9.7 kg/m3
viscosity ([1]; 310.15 K): 482.6 ± 54 mPa·s
mass density ([1]; 310.15 K): 876.93 ± 9.6 kg/m3
viscosity ([1]; 318.15 K): 316.7 ± 35 mPa·s
mass density ([1]; 318.15 K): 872.2 ± 9.5 kg/m3

CC(CC(C)(C)C)CP(=O)([O-])CC(C)CC(C)(C)C.CCCCCCCCCCCCCC[P+](CCCCCC)(CCCCCC)CCCCCC + O
viscosity ([2]; 298.15 K, w2 = 0.151): 142.4 ± 15 mPa·s
mass density ([2]; 298.15 K, w2 = 0.151): 909.07 ± 9.6 kg/m3
viscosity ([2]; 310.15 K, w2 = 0.146): 79.66 ± 8.2 mPa·s
mass density ([2]; 310.15 K, w2 = 0.146): 900.11 ± 9.5 kg/m3
viscosity ([2]; 318.15 K, w2 = 0.142): 55.58 ± 5.7 mPa·s
mass density ([2]; 318.15 K, w2 = 0.142): 893.78 ± 9.4 kg/m3
